In patent publication US9440966B2, “Compounds for treatment of metabolic syndrome” (SJT MOLECULAR RESEARCH, S.L., priority 2011, dated 2016):
Entries after “also recorded” stand apart in the source; their conditions may differ.

Key:
[1] = system: normoglycemic rats; test: Oral glucose tolerance test in normoglycemic rats (Examples 27, 28); assay type: in vivo, Male Wistar rats
Experimental: Male Wistar rats were utilized provided by Mato Grosso do Sul's Federal University's Biotherium. Until the experiments were carried out, the animals have had free access to feed and water. The room temperature was kept at 22±2° C. and the light/dark cycle was of 12 hours.
The glucose tolerance test is a reference method for the diagnosis of diabetes or glucose intolerance (5).
Distinct rat groups were orally treated, once a day, with 3-(carbohydrazyl-N′-phenylsubstituted)-1-benzosubstituted-β-carbolinic-3-carbohydrazide (compound 7a or ANIS-BZ) at doses: 0.5, 1 or 5 mg/kg or vehicle (control) for 3 days. Similarly, another rat group received metformin (reference drug used for lowering glucose serum levels) in a 300 mg/kg dose, orally, once a day for 3 days. The oral glucose tolerance test was carried out by administering of a glucose solution (2 g/kg body mass). Glycemia was determined at zero time (before oral administering) and at 60 minutes after the glucose overload.
Distinct groups of rats were treated orally, once a day, with N(-ethylamine)-1-benzosubstituted-β-carboline-3-carboxamide (compound 4a or ANIS-NH2) at doses: 0.5, 1 or 5 mg/kg, or vehicle for 3 days. Similarly, another group of rats received metformin in a 300 mg/kg dose orally for 3 days once a day. The oral glucose tolerance test was done under the administration of a glucose solution (2 g/kg body mass). Glycemia will be determined at the zero (before oral administration) time and 60 minutes after glucose overload.

[2] = system: SHR hypertensive rats; test: Plasma cholesterol levels test in SHR hypertensive rats; assay type: in vivo, Male SHR
Experimental: (§1) Distinct rat groups were orally treated, once a day, with 5 mg/kg of compounds 4a or 5a or 6a during the first 4 days, 10 mg/kg during the next 4 days and 15 mg/kg until the end of the treatment period or vehicle (control) for the same days. Similarly, another rat group received metformin (MET) (reference drug used for lowering glucose serum levels) in a 300 mg/kg dose, orally, from day 1 to the end of the treatment. Plasma cholesterol levels were measured in triplicate 12 hours after drug administration by the cholesterol oxidase/peroxidase method (BioSystems S.A, Barcelona, Spain). Blood samples were obtained by femoral vein punction. This method was chosen because of its noninvasive character, enabling daily measurements with the same rats throughout the entire treatment.
(§2) Male SHR were provided by Charles River Laboratories (USA). Until the experiments were carried out, the animals have had free access to feed and water. The room temperature was kept at 22±2° C. and the light/dark cycle was of 12 hours. All procedures were submitted to the Animal Experimentation Ethics Committee.
as §1, with “metformin” for “metformin (MET)”, “Blood pressure was” for “Plasma cholesterol levels were”, “4” for “12”, “administration in warmed warmed, restrained, conscious rats” for “administration”, “tail-cuff” for “cholesterol oxidase/peroxidase”, “with a computerized oscillometric system recorder (Nyprem, Cibertec).” for “(BioSystems S.A, Barcelona, Spain). Blood samples were obtained by femoral vein punction.”

[3] = system: SHR hypertensive rats; test: Plasma triglyceride levels test in SHR hypertensive rats; assay type: in vivo, Male SHR; conditions: 25 days of treatment (5-15 mg/Kg) oral
Experimental: as §2
as §1, with “of compound” for “of compounds”, “4a” for “4a or 5a or 6a”, “metformin” for “metformin (MET)”, “Plasma triglyceride” for “Plasma cholesterol”, “the glycerol phosphate” for “the cholesterol”

[4] = system: SHR hypertensive rats; test: Blood glucose levels test in SHR hypertensive rats; assay type: in vivo, Male SHR
Experimental: Male SHR were provided by Charles River Laboratories (USA). Until the experiments were carried out, the animals have had free access to feed and water. The food was removed 12 h before glucose determination. The room temperature was kept at 22±2° C. and the light/dark cycle was of 12 hours. All procedures were submitted to the Animal Experimentation Ethics Committee.
Distinct rat groups were orally treated, once a day, with 5 mg/kg of compound 4a during the first 4 days, 10 mg/kg during the next 4 days and 15 mg/kg until the end of the treatment period or vehicle (control) for the same days. Similarly, another rat group received metformin in a 300 mg/kg dose, orally, from day 1 to the end of the treatment. Blood glucose levels were measured in triplicate 12 hours after drug administration with the aid of a GLUCOCARD TM G meter, GT-1810. Results were compared with the effect of metformin […]. Blood samples were obtained by femoral vein punction. This method was chosen because of its noninvasive character, enabling daily measurements with the same rats throughout the entire treatment.

[5] = system: Drosophila melanogaster (Oregon-R strain); test: Toxicology study: larva-to-adult viability and development time; conditions: in vivo
From the text: The purpose of this study was to test and compare the potential toxic effects of compounds 5a, 6a and 7a on the larva-to-adult viability and development time in a Drosophila melanogaster (Oregon-R) flies. These studies have a relevant predictive role with the aim to anticipate possible adverse toxicological effects that may happen during preclinical studies with animal, preferably mammals. In addition, the data provided are highly quantitative.
Drosophila melanogaster (Oregon-R) flies were obtained by the University of the Balearic Islands (Spain). […] The larvae were seeded on standard food supplemented with the appropriate dose of compounds tested. Each compound was tested at 1, 10, 100, 1000 and 2000 μg/ml dissolved in standard food.
Fly adults were transferred from the serial transfer system to bottles with fresh food for 24 h. Adults 5 days old were placed on egg collecting devices (layers) containing a mixture of agar, water, acetic acid, and ethyl alcohol, with a drop of active yeast on it. Every 2 h., the layer glasses were changed, in this way, the eggs of a glass have similar age, with a maximum difference of 2 h. among them. The glasses of the layers were kept at 25° C. for at least 22 h. in Petri dishes until larvae hatched. Fifty larvae were picked with a lancet under a stereoscopic microscope and were seeded into 10×2 cm vials with 5 ml food. Vials were supplemented with 4a, 5a and 7a at 1, 10 and 100 μg/ml. As positive control we used cupric acetate (toxic) at 350 μg/ml.
The number of adult flies which emerged from each vial was counted daily until the exhaustion of the culture. The parameters studied were the larvae-to-adult viability (V) and development time.
Viability is expressed as V=NA/NL, where NL is the input number of larvae ([…] in our case) and NA the output number of adults emerging from these NL larvae. Development time was measured in days by the formula DT=ΣNidi/ΣNi where Ni is the number of flies emerging on the day di after the larvae were placed in the medium.
The data are expressed as the mean±SEM values from 3 independent experiments involving triplicate vials at the number of flies indicated.

[6] = system: female Swiss mice; test: Acute oral toxicology study in a mice model; assay type: in vivo; conditions: oral 2000 mg/kg single dose, observation for 14 days
Experimental: The experiments were conducted using female Swiss mice (20-30 g), housed under a 12-h light-dark cycle, with controlled humidity (60-80%), and temperature (22±1° C.). Food and water were freely available to the mice.
Female mice (n=6) were orally (2000 mg/kg) administered with a single dose of 4a, 5a, and 7a for the observation of acute signs of toxicity until 14 days. […] The observations comprised the behavior and manifestations of the toxic symptoms, and were carried out according to the Guidelines of the Organization for Economic Cooperation and Development (OECD, 2008).
All compounds were dissolved in sterile saline and were administered by oral gavage to mice based in the weight, for example 20 g received 20 μL.
The data are expressed as mean±S.E.M. of experiments. Statistical significance was determined through one-way analysis of variances (ANOVA), followed by either Newman-Keuls test. A p<0.05 was considered statistically significant. Graphs were drawn and statistical analysis was carried out using GraphPad Prism version 5.00 for Windows (GraphPad Software, San Diego, Calif., USA).

[7] = system: normoglycemic rats; test: Oral glucose tolerance test in normoglycemic rats (Examples 36, 37); assay type: in vivo, Male Wistar rats; conditions: metformin 300 mg/kg orally daily
Experimental: Male Wistar rats (200-300 g) were utilized provided by Mato Grosso do Sul's Federal University's Biotherium. Until the experiments were carried out, the animals have had free access to feed and water. The room temperature was kept at 22±2° C. with controlled humidity (60-80%) and the light/dark cycle was of 12 hours.
The glucose tolerance test was evaluated as described by Al-Awaki et al (6).
Rats were randomly divided into […] groups of four animals that were control group that received only a solution of saline, compound 23b group (10 mg/kg), compound 21a group (10 mg/kg) and metformin 300 mg/kg group. Respective treatments were made orally and daily for five days.
(§3) On day 1, 3, and 5, different groups of rats were fasted overnight (at least 12 h) prior to the test, but with given water ad libitum. The oral glucose tolerance test was carried out by administering of a glucose solution (2 g/kg body weight) according to Al-Awadi et al (6). Glycemia was determined in blood samples collected from the tail vein at −30 minutes (just before the administration of the oral extract) time 0 (prior to the glucose overload) and at 60 minutes after the glucose overload. Serum glucose concentrations were measured by the glucose oxidase method (7) using commercial kit (Accuchek-performa (Roche)) according to the manufacture's instructions.
Male Wistar rats (200-300 g) were utilized provided by Mato Grosso do Sul's Federal University's Biotherium. Until the experiments were carried out, the animals have had free access to feed and water. The room temperature was kept at 22±2° C. with controlled humidity (60-80%) and the light/dark cycle was of 12 hours. All procedures were submitted to the Animal Experimentation Ethics Committee.
The compounds 21b, 23a and 23d were diluted firstly in 20 μl of ethanol and after in 980 μl de saline. Compounds 21e, 23e and 26b were dissolved in sterile saline and were administered by oral gavage to rats based in the weight, for example 200 g received 200 μL.
54 rats were randomly divided into […] groups of five-eight animals that were control group (n=8) that received only a solution of vehicle, compound 21b group (n=5) (10 mg/kg), compound 21e group (n=5) (10 mg/kg), compound 23e group (n=5) (10 mg/kg), compound 23a group (n=5) (10 mg/kg), compound 23d group (n=5) (10 mg/kg), compound 26b group (n=5) (10 mg/kg) and metformin (n=6) 300 mg/kg group. Respective treatments were made orally and daily for five days.
as §3, with “manufactures's” for “manufacture's”

[8] = system: SHR hypertensive rats; test: Systolic blood pressure test in SHR hypertensive rats; assay type: in vivo, Male Spontaneously Hypertensive Rats (SHR); conditions: metformin 300 mg/kg oral
Experimental: Male Spontaneously Hypertensive Rats (SHR) were provided by Charles River Laboratories (USA). Until the experiments were carried out, the animals have had free access to feed and water. The room temperature was kept at 22±2° C. and the light/dark cycle was of 12 hours. All procedures were submitted to the Animal Experimentation Ethics Committee.
Distinct rat groups were orally treated, once a day, with 5 mg/kg of compounds 4a or 5a or 6a during the first 4 days, 10 mg/kg during the next 4 days and 15 mg/kg until the end of the treatment period or vehicle (control) for the same days. Similarly, another rat group received metformin (MET) (reference drug used for lowering glucose serum levels) in a 300 mg/kg dose, orally, from day 1 to the end of the treatment. Plasma cholesterol levels were measured in triplicate 12 hours after drug administration by the cholesterol oxidase/peroxidase method (BioSystems S.A, Barcelona, Spain). […]
Distinct rat groups were orally treated, once a day, with 5 mg/kg of compounds 4a or 5a or 6a during the first 4 days, 10 mg/kg during the next 4 days and 15 mg/kg until the end of the treatment period or vehicle (control) for the same days. […] Blood pressure was measured in triplicate 4 hours after drug administration in warmed warmed, restrained, conscious rats by the tail-cuff method with a computerized oscillometric system recorder (Nyprem, Cibertec). […]

Structure (SMILES): COc1ccc(-c2nc(C(=O)NCCN)cc3c2[nH]c2ccccc23)cc1 [Compound 4a, N(-ethylamine)-1-benzosubstituted-β-carboline-3-carboxamide]
- glycemic levels of animals that received an oral glucose overload ([1]; after 3 days, 0.5 mg/kg oral once a day, vs control group): only the 1 and 5 mg/kg doses reduced statistically significant the glycemic levels
- glycemic levels of animals that received an oral glucose overload ([1]; after 3 days, 1 mg/kg oral once a day, vs control group): reduced statistically significant the glycemic levels
- glycemic levels of animals that received an oral glucose overload ([1]; after 3 days, 5 mg/kg oral once a day, vs control group, 5 mg/kg): reduces the glycemic levels; also recorded: reduced statistically significant the glycemic levels
- glycemic levels of animals that received an oral glucose overload ([1]; first day, 5 mg/kg oral, vs control group, 60 min after glucose 2 g/kg): reduces the glycemic levels
- plasma cholesterol levels ([2]; 25 days of treatment (15 mg/Kg) oral, effect more pronounced for 5a and 7a): inhibition of plasma cholesterol levels
- plasma triglyceride levels [3]: statistically significant (p<0.05), inhibition of plasma triglyceride levels
- blood glucose decrease compared to the vehicle-control group ([4]; doses from 5 to 15 mg/kg oral, treatment periods of 4-15 days): 5-7%
- larvae-to-adult viability and development time [5]: not affected
- mortality or behavioral disorders (acute signs of toxicity) [6]: did not produce mortality or any behavioral disorders

Structure (SMILES): CN(C)C(=N)N=C(N)N [metformin, reference compound]
- glycemic levels of animals that received an oral glucose overload ([1]; after 3 days, metformin 300 mg/kg oral once a day): induces reduction of glycemic levels
- glycemic levels of animals that received an oral glucose overload ([1]; first day, metformin 300 mg/kg oral): induces reduction of glycemic levels
- glucose levels in oral glucose tolerance test ([7]; fifth day): reduced the glucose levels
- glucose levels in oral glucose tolerance test ([7]; first day): significant reduction in glucose levels
- glucose levels in oral glucose tolerance test ([7]; third day): induces reduction of glycemic levels; also recorded: significant reduction in glucose levels
- inhibitory effect on systolic blood pressure [8]: This effect at 5-15 mg/kg is greater than that of metformin
- plasma cholesterol levels ([2]; 25 days, Metformin 300 mg/Kg oral): inhibition of plasma cholesterol levels
- effect on blood glucose levels ([4]; Metformin 300 mg/kg for 23 days): slightly greater effect on blood glucose levels
